From patent US12509448B2, “Salts of indoleamine 2,3-dioxygenase inhibitors” (INVENTISBIO CO., LTD., priority 2019, dated 2025)
In brackets after ≈: the same amount, converted by molar mass. Entries after “also recorded” stand apart in the source; their conditions may differ. Where a name gives a salt, the structure may show the parent alone.

Legend:
[1] = Solubility test in pH 1.2, 6.8 and 7.4 buffers (HPLC, pH of filtrate, XRPD of remaining solid); assay type: physicochemical; settings: for remaining solid by XRPD: pH 1.2 buffer solution; for change of pH of the buffer solutions: HCl salt: pH 6.8 and 7.4 buffer solutions, K salt: buffers; for solubility compared with Compound 1: buffer solutions
Protocol: (§1) HPLC ANALYSIS: a representative HPLC method is shown below, which can be used, for example, to analyze the purity, solubility, and stability of the salts herein.
Solubility test: About 15-20 mg of Compound 1 (Form II), K salt (Form III) and HCl salt (Form I) were weighed into vials, and then added 1.5 mL of pH 1.2, pH 6.8 or pH 7.4 buffer to make saturated solutions.
All suspensions were kept shaking with 200 rpm at room temperature for up to 24 hours. At 30 min and 24 hours, the sample solution was filtered and analyzed by HPLC to determine the solubility. The pH of filtrates was also measured. At 24 hours, remaining solids were collected and determined by XRPD.
First, the solubility of Compound 1, HCl salt and K salt was tested in pH 1.2, 6.8 and 7.4 buffer solutions at 25° C. for 30 min and 24 hours. The solubility data and pH value of filtrate were listed in Table 6 and Table 7, respectively.
Additional solubility of Compound 1 and the HCl salt was tested in pH 6.8 and 7.4 for 30 min and 2 hours.

[2] = Solid stability test at 40° C./75% RH (HPLC, XRPD); assay type: physicochemical; settings: for physical and chemical stability (XRPD and HPLC): 40° C./75% RH during testing period (9 days; HCl salt 7 days); for Purity (% Area) Initilal: solid stability test, 0 days
Protocol: as §1
Stability test: About 15 mg of Compound 1 (Form II), and K salt (Form III) were weighed into vials, and put at the condition of 40° C./75% RH for 9 days. At 0 and 9 days, the solid sample was dissolved using methanol/water (1/1) to make a solution with a concentration of 0.2 mg/mL. Sample solutions were analyzed by HPLC and solid samples were examined by XRPD.
About 15 mg of Compound 1 HCl salt (Form I) was weighed into vials, and put at the condition of 40° C./75% RH for 7 days. At 0 and 7 days, the solid sample was dissolved using methanol/water (1/1) to make a solution with the concentration of 0.2 mg/mL. The sample solution was analyzed by HPLC and solid sample was analyzed by XRPD.
K salt and Compound 1 was stored at 40° C./75% RH for 9 days, while HCl salt was stored for 7 days.

[3] = Dynamic moisture sorption analysis (DVS); assay type: physicochemical; settings: for moisture adsorbed in DVS test: at 80% RH
Protocol: Dynamic moisture sorption analysis (DVS): DVS was determined using IGAsorp (Hiden Isochema, UK). The sample was tested at a targeted RH of 10 to 90% full cycle in step mode. The analysis was performed in 10% RH increments.

[4] = tested on: human hepatocyte; settings: compared to INCB-24360 and others of WO2014150677 and WO2014150646; cited from earlier work
[5] = Physical stability of Form I under heat and high humidity (XRPD); assay type: physicochemical; settings: for crystalline form by XRPD after storage at high humidity: 25° C./92.5% RH for 10 days; for crystalline form by XRPD after storage under heat: 60° C. for 10 days
Protocol: Samples of HCl salt Form I was put into the condition of 92.5% RH or 60° C. for 10 days. Then the sample was analyzed by XRPD. […] XRPD patterns were shown in FIG. 1C (92.5% RH for 10 days) and FIG. 1D (60° C. for 10 days).

[6] = Stability of HCl salt Form I in water and in solvent; assay type: physicochemical
[7] = Grinding of Form I (XRPD); assay type: physicochemical; settings: grinded for 2 min and 5 min
Protocol: Form I of the HCl salt was grinded for 2 min and 5 min.

[8] = additional test (Table 8), pH 6.8 buffer
[9] = additional test (Table 8), pH 6.8 buffer, 2 hours
[10] = additional test (Table 8), pH 7.4 buffer
[11] = additional test (Table 8), pH 7.4 buffer, 2 hours
[12] = pH 1.2 buffer, 24 hours, 25° C.
[13] = pH 6.8 buffer, 24 hours, 25° C.
[14] = pH 7.4 buffer, 24 hours, 25° C.

SMILES	Solubility (mg/mL) 30 min [1, 8] [mg/mL]	Solubility (mg/mL) 2 hours [1, 9] [mg/mL]	Solubility (mg/mL) 30 min [1, 10] [mg/mL]	Solubility (mg/mL) 2 hours [1, 11] [mg/mL]	remaining solid by XRPD ([1]; 24 hours)	pH value of filtrate 30 min ([1]; pH 1.2 buffer)	Solubility (mg/mL) 30 min ([1]; pH 1.2 buffer, 25° C.) [mg/mL]	pH value of filtrate 24 hours ([1]; pH 1.2 buffer, 24 hours)	Solubility (mg/mL) 24 hours [1, 12] [mg/mL]	pH value of filtrate 30 min ([1]; pH 6.8 buffer)	Solubility (mg/mL) 30 min ([1]; pH 6.8 buffer, 25° C.) [mg/mL]	pH value of filtrate 24 hours ([1]; pH 6.8 buffer, 24 hours)	Solubility (mg/mL) 24 hours [1, 13] [mg/mL]	pH value of filtrate 30 min ([1]; pH 7.4 buffer)	Solubility (mg/mL) 30 min ([1]; pH 7.4 buffer, 25° C.) [mg/mL]	pH value of filtrate 24 hours ([1]; pH 7.4 buffer, 24 hours)	Solubility (mg/mL) 24 hours [1, 14] [mg/mL]	physical and chemical stability (XRPD and HPLC) [2]	Purity (% Area) Initilal [2] [% Area]	XRPD pattern after DVS test [3]	also measured
CCN(c1ncc(C2(C(=O)O)CCC2)cc1Nc1ccc(Cl)cc1)C1CCOCC1 [Compound 1, 1-(5-((4-chlorophenyl)amino)-6-(ethyl(tetrahydro-2H-pyran-4-yl)amino)pyridin-3-yl)cyclobutane-1-carboxylic acid]	0.11 (≈ 256 µM)	0.12 (≈ 279 µM)	0.39 (≈ 907 µM)	0.44 (≈ 1020 µM)	changed into HCl salt	1.11	0.49 (≈ 1140 µM)	1.16	0.51 (≈ 1190 µM)	6.87	0.13 (≈ 302 µM)	6.81	0.04 (≈ 93 µM)	7.39	0.44 (≈ 1020 µM)	7.38	0.50 (≈ 1160 µM)	physically and chemically stable	99.53	not changed	Purity (% Area) 9 days ([2]; solid, 40° C./75% RH): 99.53 % Area; XRPD pattern after DVS test ([3]; listed as Form II): remained unchanged; moisture adsorbed in DVS test [3]: about 0.37%; human hepatocyte clearance compared to other IDO inhibitors [4]: better human hepatocyte clearance
CCN(c1ncc(C2(C(=O)O)CCC2)cc1Nc1ccc(Cl)cc1)C1CCOCC1 [HCl salt]	1.62	0.95	3.41	3.53	–	1.10	0.58	1.17	–	6.59	1.45	3.34	0.02	7.02	3.66	6.06	0.49	physically and chemically stable	99.81	not changed	change of pH of the buffer solutions [1]: obviously decreased; solubility compared with Compound 1 [1]: higher solubility than Compound 1; also recorded: more soluble than Compound 1; solubility at 24 h ([1]; pH 1.2 buffer, 25 °C, pH 1.2, simulated gastric fluid, thermodynamic from solid, pH 1.2 buffer, 24 hours, 25° C., read-out: Solubility (mg/mL) 24 hours): 0.65 mg/mL; change of solubility with time ([1]; pH 6.8 and 7.4 buffers at 24 hours): obviously decreased; solid by XRPD ([1]; pH 6.8 and 7.4 buffers, 2 hours): part of HCl salt had been changed to be Compound 1; change of solubility with time ([1]; pH 6.8 buffer at 2 hours): decreased; change of solubility with time ([1]; pH 7.4 buffer, 2 hours versus 30 min): almost constant; Purity (% Area) 7 days ([2]; solid, 40° C./75% RH, 7 days): 99.78 % Area; XRPD pattern after DVS test ([3]; listed as Form I): remained unchanged; crystalline form by XRPD after storage at high humidity [5]: unchanged; crystalline form by XRPD after storage at high humidity ([5]; listed as Form I): remained unchanged; crystalline form by XRPD after storage under heat [5]: unchanged; crystalline form by XRPD after storage under heat ([5]; listed as Form I): remained unchanged; degradation in solvent ([6]; in THE at 60° C.): can be degraded; dissociation in water ([6]; in water): can dissociate to Compound 1; crystalline form by XRPD after grinding [7]: still Form I
CCN(c1ncc(C2(C(=O)O)CCC2)cc1Nc1ccc(Cl)cc1)C1CCOCC1 [K salt]	–	–	–	–	changed into HCl salt	1.18	9.52	1.23	0.71	6.84	2.55	7.46	0.55	7.62	6.38	8.02	2.25	physically and chemically stable	99.80	–	change of pH of the buffer solutions [1]: increased; solubility compared with Compound 1 [1]: much higher; also recorded: higher solubility than Compound 1; solubility compared with Compound 1 ([1]; listed as potassium salt): more soluble than Compound 1; Purity (% Area) 9 days ([2]; solid, 40° C./75% RH): 99.79 % Area; XRPD pattern after DVS test ([3]; listed as potassium salt): not changed; moisture adsorbed in DVS test ([3]; listed as potassium salt): 1.32%
CCN(c1ncc(C2(C(=O)O)CCC2)cc1Nc1ccc(Cl)cc1)C1CCOCC1 [Na salt]	–	–	–	–	–	–	–	–	–	–	–	–	–	–	–	–	–	–	–	changed	XRPD pattern after DVS test ([3]; listed as Form IV): changed into a different form; moisture adsorbed in DVS test [3]: 30.84%; moisture adsorbed in DVS test ([3]; listed as sodium salt): about 30%
